# Laboratory results: PubChem BioAssay (NCI)
#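 Interpolation was linear, between the two tested concentrations surrounding the appropriate level; five concentrations were tested over 48 hours in 96-well plates. At the GI50, growth is halved. TGI: concentration producing complete growth inhibition.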
# Columns and labels:
# Assay in all cases: NCI-60 cell line screen, 48 h
# [1] = test system: U251 CNS
# [2] = test system: HOP-92 NSCLC
# [3] = test system: RPMI-8226 leukemia
# [4] = test system: K-562 leukemia
# [5] = test system: PC-3 prostate
# [6] = test system: MCF7 breast
# [7] = test system: SK-MEL-28 melanoma
# [8] = test system: OVCAR-8 ovarian
# [9] = test system: A498 renal
# [10] = test system: SK-OV-3 ovarian
# [11] = test system: SNB-19 CNS
# [12] = test system: CAKI-1 renal
# [13] = test system: SNB-75 CNS
# [14] = test system: SR leukemia
# [15] = test system: HL-60(TB) leukemia
# [16] = test system: HS 578T breast
# [17] = test system: HCT-15 colon
# [18] = test system: UACC-257 melanoma
# [19] = test system: IGROV1 ovarian
# [20] = test system: NCI/ADR-RES ovarian
# [21] = test system: TK-10 renal
# [22] = test system: CCRF-CEM leukemia
# [23] = test system: HT29 colon
# [24] = test system: MDA-MB-231 breast
# [25] = test system: DU-145 prostate
# [26] = test system: SF-295 CNS
# [27] = test system: SK-MEL-2 melanoma
# [28] = test system: ACHN renal
# [29] = test system: HCC-2998 colon
# [30] = test system: SW-620 colon
# [31] = test system: MOLT-4 leukemia
# [32] = test system: LOX IMVI melanoma
# [33] = test system: A549 NSCLC
# [34] = test system: OVCAR-4 ovarian
# [35] = test system: NCI-H522 lung
# [36] = test system: SK-MEL-5 melanoma
# [37] = test system: MALME-3M melanoma
# [38] = test system: SF-268 CNS
# [39] = test system: COLO 205 colon
# [40] = test system: EKVX NSCLC
# [41] = test system: M14 melanoma
# [42] = test system: MDA-MB-435
# [43] = test system: BT-549 breast
# [44] = test system: NCI-H460 lung
# [45] = test system: KM12 colon
# [46] = test system: SF-539 CNS
# [47] = test system: UACC-62 melanoma
# [48] = test system: HCT-116 colon
# [49] = test system: HOP-62 NSCLC
# [50] = test system: SN12C renal
# [51] = test system: T-47D breast
# [52] = test system: RXF 393 renal
# [53] = test system: 786-0 renal
# [54] = test system: UO-31 renal
# [55] = test system: NCI-H23 lung
# [56] = test system: NCI-H226 lung
# [57] = test system: OVCAR-5 ovarian
smiles,measurement,setting,value
O=C(Nc1cc(C(F)(F)F)cc(C(F)(F)F)c1)Nc1ccc2oc(=O)ccc2c1,GI50,[1],1290 nM
same,TGI,[1],> 100000 nM
same,GI50,[2],1410 nM
same,TGI,[2],4890 nM
same,GI50,[3],426 nM
same,TGI,[3],2360 nM
same,GI50,[4],782 nM
same,TGI,[4],> 100000 nM
same,GI50,[5],753 nM
same,TGI,[5],> 100000 nM
same,GI50,[6],2880 nM
same,TGI,[6],> 100000 nM
same,GI50,[7],2790 nM
same,TGI,[7],> 100000 nM
same,GI50,[8],1960 nM
same,TGI,[8],> 100000 nM
same,GI50,[9],1670 nM
same,TGI,[9],4970 nM
same,GI50,[10],2320 nM
same,TGI,[10],5700 nM
same,GI50,[11],1230 nM
same,TGI,[11],> 100000 nM
same,GI50,[12],1250 nM
same,TGI,[12],4860 nM
same,GI50,[13],1930 nM
same,TGI,[13],6590 nM
same,GI50,[14],997 nM
same,TGI,[14],5090 nM
same,GI50,[15],705 nM
same,TGI,[15],5740 nM
same,GI50,[16],2440 nM
same,TGI,[16],6360 nM
same,GI50,[17],2110 nM
same,TGI,[17],> 100000 nM
same,GI50,[18],2020 nM
same,TGI,[18],6130 nM
same,GI50,[19],1510 nM
same,TGI,[19],> 100000 nM
same,GI50,[20],2010 nM
same,TGI,[20],> 100000 nM
same,GI50,[21],2990 nM
same,TGI,[21],> 100000 nM
same,GI50,[22],1220 nM
same,TGI,[22],> 100000 nM
same,GI50,[23],2470 nM
same,TGI,[23],> 100000 nM
same,GI50,[24],2770 nM
same,TGI,[24],> 100000 nM
same,GI50,[25],2000 nM
same,TGI,[25],> 100000 nM
same,GI50,[26],1440 nM
same,TGI,[26],> 100000 nM
same,GI50,[27],1680 nM
same,TGI,[27],3410 nM
same,GI50,[28],1290 nM
same,TGI,[28],> 100000 nM
same,GI50,[29],2770 nM
same,TGI,[29],> 100000 nM
same,GI50,[30],3020 nM
same,TGI,[30],> 100000 nM
same,GI50,[31],758 nM
same,TGI,[31],> 100000 nM
same,GI50,[32],1600 nM
same,TGI,[32],4370 nM
same,GI50,[33],2140 nM
same,TGI,[33],> 100000 nM
same,GI50,[34],1250 nM
same,TGI,[34],> 100000 nM
same,GI50,[35],1400 nM
same,TGI,[35],5000 nM
same,GI50,[36],1230 nM
same,TGI,[36],2510 nM
same,GI50,[37],1870 nM
same,TGI,[37],5080 nM
same,GI50,[38],2950 nM
same,TGI,[38],> 100000 nM
same,GI50,[39],1750 nM
same,TGI,[39],3460 nM
same,GI50,[40],3920 nM
same,TGI,[40],> 100000 nM
same,GI50,[41],2710 nM
same,TGI,[41],> 100000 nM
same,GI50,[42],2970 nM
same,TGI,[42],> 100000 nM
same,GI50,[43],2360 nM
same,TGI,[43],6560 nM
Oc1ccc(CSc2nnc(-c3ccccc3)o2)c2cccnc12,GI50,[1],783 nM
same,TGI,[1],> 100000 nM
same,GI50,[2],499 nM
same,TGI,[2],5360 nM
same,GI50,[3],772 nM
same,TGI,[3],> 100000 nM
same,GI50,[4],2050 nM
same,TGI,[4],> 100000 nM
same,GI50,[5],1030 nM
same,TGI,[5],> 100000 nM
same,GI50,[44],527 nM
same,TGI,[44],> 100000 nM
same,GI50,[6],2450 nM
same,TGI,[6],> 100000 nM
same,GI50,[7],2290 nM
same,TGI,[7],> 100000 nM
same,GI50,[8],1770 nM
same,TGI,[8],> 100000 nM
same,GI50,[9],4100 nM
same,TGI,[9],> 100000 nM
same,GI50,[45],724 nM
same,TGI,[45],> 100000 nM
same,GI50,[10],2870 nM
same,TGI,[10],15000 nM
same,GI50,[11],817 nM
same,TGI,[11],19300 nM
same,GI50,[46],1490 nM
same,TGI,[46],15800 nM
same,GI50,[12],2870 nM
same,TGI,[12],> 100000 nM
same,GI50,[13],1470 nM
same,TGI,[13],15600 nM
same,GI50,[14],873 nM
same,TGI,[14],> 100000 nM
same,GI50,[15],1390 nM
same,TGI,[15],6620 nM
same,GI50,[16],721 nM
same,TGI,[16],> 100000 nM
same,GI50,[47],2190 nM
same,TGI,[47],6010 nM
same,GI50,[48],1650 nM
same,TGI,[48],> 100000 nM
same,GI50,[17],797 nM
same,TGI,[17],> 100000 nM
same,GI50,[49],2330 nM
same,TGI,[49],30600 nM
same,GI50,[18],2620 nM
same,TGI,[18],8920 nM
same,GI50,[19],2420 nM
same,TGI,[19],> 100000 nM
same,GI50,[21],2520 nM
same,TGI,[21],9860 nM
same,GI50,[22],1130 nM
same,TGI,[22],> 100000 nM
same,GI50,[23],6970 nM
same,TGI,[23],> 100000 nM
same,GI50,[24],4010 nM
same,TGI,[24],> 100000 nM
same,GI50,[25],3410 nM
same,TGI,[25],> 100000 nM
same,GI50,[26],1390 nM
same,TGI,[26],21000 nM
same,GI50,[50],2640 nM
same,TGI,[50],> 100000 nM
same,GI50,[27],2550 nM
same,TGI,[27],29800 nM
same,GI50,[28],2030 nM
same,TGI,[28],5890 nM
same,GI50,[29],2260 nM
same,TGI,[29],> 100000 nM
same,GI50,[30],2570 nM
same,TGI,[30],> 100000 nM
same,GI50,[51],2550 nM
same,TGI,[51],> 100000 nM
same,GI50,[31],2030 nM
same,TGI,[31],> 100000 nM
same,GI50,[32],1560 nM
same,TGI,[32],11300 nM
same,GI50,[52],3270 nM
same,TGI,[52],97200 nM
same,GI50,[33],2690 nM
same,TGI,[33],> 100000 nM
same,GI50,[34],4340 nM
same,TGI,[34],> 100000 nM
same,GI50,[35],2330 nM
same,TGI,[35],> 100000 nM
same,GI50,[36],1830 nM
same,TGI,[36],6400 nM
same,GI50,[37],2800 nM
same,TGI,[37],> 100000 nM
same,GI50,[53],3140 nM
same,TGI,[53],11900 nM
same,GI50,[54],1560 nM
same,TGI,[54],7470 nM
same,GI50,[38],920 nM
same,TGI,[38],> 100000 nM
same,GI50,[39],59300 nM
same,TGI,[39],> 100000 nM
same,GI50,[55],2440 nM
same,TGI,[55],14000 nM
same,GI50,[40],2620 nM
same,TGI,[40],> 100000 nM
same,GI50,[42],1080 nM
same,TGI,[42],> 100000 nM
same,GI50,[43],923 nM
same,TGI,[43],> 100000 nM
same,GI50,[56],3780 nM
same,TGI,[56],> 100000 nM
same,GI50,[57],6650 nM
same,TGI,[57],> 100000 nM
